From patent US7645760B2, “1-(4-Benzyl-piperazin-1-yl)-3-phenyl-propenone derivatives” (Novartis AG., priority 2002, dated 2010)

melting point: 275 to 277 °C
SMILES: C[C@@H]1CN(Cc2ccc(F)cc2)CCN1C(=O)/C=C/c1ccc(Cl)cc1NC(=O)N1CCNC1=O [Example 11, 2-Oxo-imidazolidine-1-carboxylic acid (5-Chloro-2-[(E)-3-[(R)-4-(4-fluoro-benzyl)-2-methyl-piperazin-1-yl]-3-oxo-propenyl]-phenyl)-amide]
